# Measured values reported in BindingDB's records for patent US9932341 (Incyte, 2018).
# Molecular target: T1, Phosphatidylinositol 4,5-bisphosphate 3-kinase catalytic subunit delta isoform (Homo sapiens, UniProt O00329)
# T1 sequence (O00329 whole entry): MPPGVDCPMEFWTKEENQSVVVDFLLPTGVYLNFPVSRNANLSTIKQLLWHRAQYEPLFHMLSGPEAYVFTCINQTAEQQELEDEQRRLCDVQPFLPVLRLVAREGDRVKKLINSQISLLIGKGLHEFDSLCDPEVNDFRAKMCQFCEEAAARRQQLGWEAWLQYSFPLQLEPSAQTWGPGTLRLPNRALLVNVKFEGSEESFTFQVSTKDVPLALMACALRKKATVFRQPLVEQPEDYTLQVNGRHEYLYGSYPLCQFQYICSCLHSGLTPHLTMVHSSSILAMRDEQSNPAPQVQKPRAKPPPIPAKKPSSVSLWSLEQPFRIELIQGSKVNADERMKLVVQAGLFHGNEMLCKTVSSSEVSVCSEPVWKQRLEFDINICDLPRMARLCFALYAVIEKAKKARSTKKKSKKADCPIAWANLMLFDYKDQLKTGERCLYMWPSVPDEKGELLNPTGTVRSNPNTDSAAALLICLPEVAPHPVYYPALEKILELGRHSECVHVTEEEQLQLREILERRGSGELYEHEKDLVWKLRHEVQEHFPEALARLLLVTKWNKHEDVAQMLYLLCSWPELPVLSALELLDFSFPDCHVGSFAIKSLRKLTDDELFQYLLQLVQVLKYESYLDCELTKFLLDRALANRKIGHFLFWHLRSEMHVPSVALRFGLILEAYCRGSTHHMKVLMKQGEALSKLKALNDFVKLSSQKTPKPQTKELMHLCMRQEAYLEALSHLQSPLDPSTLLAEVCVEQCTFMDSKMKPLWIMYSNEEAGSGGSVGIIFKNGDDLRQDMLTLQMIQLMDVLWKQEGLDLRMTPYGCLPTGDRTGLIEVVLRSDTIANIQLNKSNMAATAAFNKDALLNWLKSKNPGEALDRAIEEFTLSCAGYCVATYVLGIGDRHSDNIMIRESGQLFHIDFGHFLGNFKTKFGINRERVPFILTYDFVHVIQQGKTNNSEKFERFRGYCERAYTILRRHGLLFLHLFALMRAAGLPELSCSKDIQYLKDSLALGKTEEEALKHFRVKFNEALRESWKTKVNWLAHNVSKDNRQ
# Assay: Scintillation Proximity Assay
# Description: The kinase reaction was conducted in polystyrene 384-well matrix white plate from Thermo Fisher Scientific in a final volume of 25 uL. Inhibitors were first diluted serially in DMSO and added to the plate wells before the addition of other reaction components. The final concentration of DMSO in the assay was 0.5%. The PI3K assays were carried out at room temperature in 20 mM MOPS, pH 6.7, 10 mM MgCl2, 5 mM DTT and CHAPS 0.03%. Reactions were initiated by the addition of ATP, the final reaction mixture consisted of 20 uM PIP2, 20 uM ATP, 0.2 uCi [γ-33P] ATP, 4 nM PI3K . […] 25 mM EDTA, 400 uM ATP. The final concentration of SPA beads was 1.0 mg/mL. After the plate sealing, plates were shaken overnight at room temperature and centrifuged at 1800 rpm for 10 minutes, the radioactivity of the product was determined by scintillation counting on Topcount (PerkinElmer).
row,IC50 [nM],Structure (SMILES)
1,< 10,"COc1c(C(C)n2nc(C)c3c(N)ncnc32)cc(Cl)c(C)c1-c1cncnc1 (configuration not stated) [US9932341, Example 168]"
2,< 10,"COc1c(C(C)n2nc(C)c3c(N)ncnc32)cc(Cl)c(C)c1-c1ccc(C(=O)N(C)CCO)nc1 (configuration not stated) [US9932341, Example 24]"
